The values that follow come from publication PMC5815658 (Journal of Medicinal Chemistry, 2017).

Converted amounts (≈) assume the structure as drawn. Read-outs that look alike come from different tables or passages of the source.

Data set [1] in a line: PDP aqueous stability protocol. The note with it: 37 °C.
Data set [2] can be described thus: LogD7.4 determination by RP-HPLC. The note with it: pH 7.4.
Data set [3] addresses T1, pirin protein in SK-OV-3 human ovarian cancer cells (Homo sapiens, UniProt O00625).
T1 construct: endogenous in cells; host or cells: SK-OV-3
T1 sequence (O00625 1-290): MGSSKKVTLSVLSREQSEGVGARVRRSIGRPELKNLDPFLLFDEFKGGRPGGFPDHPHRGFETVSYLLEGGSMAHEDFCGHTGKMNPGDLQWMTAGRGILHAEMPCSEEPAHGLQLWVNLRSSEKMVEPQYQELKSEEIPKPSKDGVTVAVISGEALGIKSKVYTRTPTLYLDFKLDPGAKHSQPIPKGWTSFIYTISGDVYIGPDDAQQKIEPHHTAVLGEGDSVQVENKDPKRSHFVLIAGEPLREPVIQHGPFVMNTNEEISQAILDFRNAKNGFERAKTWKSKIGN
Put plainly: Pirin depletion in SK-OV-3 cells (immunoblot / capillary electrophoresis immunoassay). The data set is classed as cell-based. The note with it: SK-OV-3 cells. On the procedure:
in vivo in athymic mice to increase its tumorigenicity and reliability as a xenograft, and used within 10 passages of banked stocks.
Prior to use, the cells were analyzed by short tandem repeat (STR) profiling. Polymorphic STR loci were amplified using a polymerase chain reaction (PCR) primer set. The PCR product (each locus being labelled with a different fluorophore) was analyzed simultaneously with size standards using automated fluorescent detection. The number of repeats at 10 different loci (as recommended by the American Type Culture Collection, ATCC) was used to define the STR profile and this was cross-referenced with online databases to confirm authenticity. […]
the ATCC reference line (LGC Promochem, UK). […]
nested PCR protocol (Venor GeM kit, Minerva Biolabs, Germany). Cells were grown in DMEM/10 % FCS, 2 mM glutamine and nonessential amino acids in 5 % CO2.
SK-OV-3 cells were treated as for each experimental condition. Cells were harvested and lysed by scraping in urea lysis buffer (20 mM HEPES pH 8.0, 9 M urea, 1 mM sodium orthovanadate, 2.5 mM sodium pyrophosphate, 1 mM β-glycerophosphate). […]
of samples was determined using a bicinchoninic acid (BCA) protein assay kit (Thermo Fisher Scientific). Western blotting was carried out as previously described.10 Pirin and GAPDH antibodies were obtained from Abcam (ab157212) and Merck […]
Samples were treated, harvested and lysed as described above. A total of 5 μL of 0.2 mg/mL protein was loaded into plates and capillary western analysis was carried out according to the manufacturer’s instructions (ProteinSimple WES). The data was analyzed with the Compass software (ProteinSimple).
Sigma-Aldrich and Cell Signaling Technology, respectively.
10 Sharp SY, Boxall K, Rowlands M, Prodromou C, Roe SM, Maloney A, Powers M, Clarke PA, Box G, Sanderson S, Patterson L, Matthews TP, Cheung KM, Ball K, Hayes A, Raynaud F, Marais R, Pearl L, Eccles S, Aherne W, McDonald E, Workman P. In vitro biological characterization of a novel, synthetic diaryl pyrazole resorcinol class of heat shock protein 90 inhibitors.
On the technique in general: Immunoblotting shows a protein as a band on a membrane.

A short description of data set [4]: Kinetic solubility determination by RP-HPLC. The note with it: PBS, pH 7.4, aqueous buffer, kinetic from dmso stock.
The target of a further data set is T2, CRBN-DDB1 complex (Homo sapiens, UniProt Q96SW2).
T2 construct: His6-ZZ-HRV3C (N); made in house; host or cells: Sf9 insect cells (baculovirus co-infection)
Put plainly: CRBN/DDB1 fluorescence polarization competition assay. The data set is classed as binding. On the procedure: CRBN/DDB1 Fluorescence Polarization Assay […]
Unless otherwise stated, the aqueous assay buffer contained 0.02 M HEPES((4-(2-hydroxyethyl)-1-piperazineethanesulfonic acid)) pH 8.0, 0.15 M NaCl, 0.5 mM TCEP ((tris(2-carboxyethyl)phosphine)), 0.05% Tween 20. The assay was conducted using 384 well black plates (ProxiPlate F Plus, Perkin-Elmer, Massachusetts, USA).
Plate Reader. […] Fluorescence […]
polarization was measured in units of millipolarization (mP) and are background corrected. Data were plotted and analyzed using […]
All experiments were performed in triplicate unless otherwise stated. Values are quoted as the geometric […]
Each graph is a representative example of a single biological repeat unless otherwise stated.
CRBN/DDB1 Protein Expression & Purification
Protein expression and purification methods adapted from Lopez-Girona et al.5 Full length human CRBN (accession number NM016302) was amplified by PCR & inserted downstream of the polyhedrin promoter of a pFBDM expression vector which had been modified to introduce a N-terminal His6-ZZ-HRV3C tag. Full length human DDB1 (accession number NM001923) was amplified by PCR with primers which introduced a C-terminal StrepTag and inserted downstream of the p10 promoter of a separate pFBDM expression vector. Baculoviruses were generated according to Bac-to-Bac protocols (Invitrogen) and used to co-infect Sf9 cells grown @ 27 °C in shaker flasks using Insect-XPRESS media (Lonza). Cells were harvested 48 hours post infection and frozen. For purification, pellets were thawed & resuspended in 5 volumes of Histrap buffer A (see below) and lysed […]
Superdex 200 (HiLoad 26/600), ResourceQ (6 mL) and finally a second Superdex 200 (HiLoad 26/600) column. All columns were from GE Healthcare and all purification steps were performed @ 4 °C. HisTrap buffer A: 50mM Tris (2-Amino-2-(hydroxymethyl)propane-1,3-diol), 500mM NaCl, 0.5mM TCEP ((tris(2-carboxyethyl)phosphine), 5% glycerol, pH 8.0. HisTrap Buffer B: + 250 mM imidazole. Superdex 200 buffer: 50mM Tris, 200mM NaCl, 0.5mM TCEP, 5% glycerol, pH 8.0. Resource Q buffer A: 50mM Tris, 0.5mM TCEP, 5% Glycerol, pH8.0. Resource Q buffer B + 1M NaCl.
California, USA) to prepare CRBN/DDB1 concentrations from 0.1 to 500 nM in 10 µL final assay volume containing 5 nM FP- […]
point prior to analysis. The KD was calculated using non-linear regression and a one-site specific binding model.
Analysis of competition assay FP-probe bound fraction […]
fb=probe bound fraction, KD=probe dissociation constant, L0=probe concentration, R0=protein concentration, Ki=ligand […]
CRBN/DDB1 Competition Assay
Compounds as solutions in DMSO were dispensed using an ECHO 550 Liquid Handler (Labcyte Inc).
Tracer controls (5 nM FP-probe S18 assay buffer only) and bound tracer controls (5 nM and 80 nM CRBN/DDB1) were included on each assay plate . Plates were incubated overnight at 4 °C before warming to room temperature and fluorescence polarization measured using an EnVision plate reader (Perkin -Elmer, Massachusetts, USA). IC 50 values […]
Table S2. CRBN/DDB1 Control Compounds
(Fluorescence polarisation rises when a labelled molecule tumbles more slowly, as on binding a larger partner.)

Take `O=C1CCC(N2C(=O)c3cccc(OCCOCCOCCN4CCN(Cc5ccc6cc(C(=O)Nc7cc(NC(=O)c8ccc9c(c8)OCCO9)ccc7Cl)ccc6n5)CC4)c3C2=O)C(=O)N1` (centres unmarked) [PDP 16, N-(2-Chloro-5-(2,3-dihydrobenzo[b][1,4]dioxine-6-carboxamido)phenyl)-2-((4-(2-(2-(2-((2-(2,6-dioxopiperidin-3-yl)-1,3-dioxoisoindolin-4-yl)oxy)ethoxy)ethoxy)ethyl)piperazin-1-yl)methyl)quinoline-6-carboxamide]: in data set [1] (pH 7.4 PBS, n=2, Figure S1), the “First-order decay rate constant” value was 0.0038 min⁻¹. For the same compound, the “Half-life (aqueous stability)” value in data set [1] (pH 7.4 phosphate buffer) is given as about 3 h. Also, the half-life at 100 µM in data set [1] (phosphate buffer (PBS), pH 7.4, Half-life (aqueous stability), pH 7.4 phosphate buffer) is 3 h. Further, the chromatographic logD in data set [2] is 2.7. In addition, the Pirin degradation result in data set [3] (50 nM, 2 h exposure, Figure 3A) was “near complete pirin degradation”. Besides, in data set [3] (50 to 1500 nM, up to 24 h), the “Concentration-response shape with increasing concentration” value is “clear hook effect”. The “Lowest concentration with pirin degradation activity” value in data set [3] (2 h exposure, Figure 3B) is given as 0.5 nM. The kinetic solubility at 120 min in data set [4] was 2 µM (≈ 1.89 µg/mL). In addition, the IC50 at CRBN-DDB1 complex (CRBN/DDB1 FP IC50, single repeat N=2, best-fit value, variable slope four parameters) is 323 nM; on CRBN-DDB1 complex (best-fit value, variable slope four parameters, read-out: CRBN/DDB1 FP IC50, single repeat N=1), 715 nM; on CRBN-DDB1 complex (best-fit value, variable slope four parameters, read-out: CRBN/DDB1 FP IC50, single repeat N=3) it was 519 nM; on CRBN-DDB1 complex (column statistics, read-out: CRBN/DDB1 FP pIC50, mean of 3 values (unrounded) (converted)), 493 nM; on CRBN-DDB1 complex (displacement of thalidomide derived fluorescent probe, geometric mean n = 3, read-out: CRBN/DDB1 FP IC50), 490 nM. The Ki at CRBN-DDB1 complex (calculated from geometric mean CRBN-DDB1 IC50 and FP-probe KD) is 120 nM.

One may read the half-life as the time needed for the level to fall by half in the phase considered. For orientation: chromatographic logD means lipophilicity estimated from chromatographic retention. Read a low chromatographic logD as a more hydrophilic compound. By solubility (kinetic) is commonly meant the concentration staying in solution when a stock, usually in DMSO, is diluted into the medium. The Ki is the equilibrium dissociation constant of an inhibitor or competing ligand from its target.
